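Five concentrations, 48 hours, 96-well plates. Definition used: TGI = concentration required for complete inhibition of growth.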
How the values were obtained:
Assay in all cases: inhibition of tumour cell growth, NCI panel, 48 h
786-0 renal = system: 786-0 renal
A498 renal = system: A498 renal
A549 NSCLC = system: A549 NSCLC
ACHN renal = system: ACHN renal
CAKI-1 renal = system: CAKI-1 renal
CCRF-CEM leukemia = system: CCRF-CEM leukemia
COLO 205 colon = system: COLO 205 colon
DMS 114 small cell lung = system: DMS 114 small cell lung
DMS 273 small cell lung = system: DMS 273 small cell lung
EKVX NSCLC = system: EKVX NSCLC
HCC-2998 colon = system: HCC-2998 colon
HCT-116 colon = system: HCT-116 colon
HCT-15 colon = system: HCT-15 colon
HOP-62 NSCLC = system: HOP-62 NSCLC
HOP-92 NSCLC = system: HOP-92 NSCLC
HT29 colon = system: HT29 colon
KM12 colon = system: KM12 colon
KM20L2 colon = system: KM20L2 colon
LOX IMVI melanoma = system: LOX IMVI melanoma
LXFL 529 NSCLC = system: LXFL 529 NSCLC
M14 melanoma = system: M14 melanoma
M19-MEL melanoma = system: M19-MEL melanoma
MALME-3M melanoma = system: MALME-3M melanoma
MOLT-4 leukemia = system: MOLT-4 leukemia
NCI-H226 lung = system: NCI-H226 lung
NCI-H23 lung = system: NCI-H23 lung
NCI-H460 lung = system: NCI-H460 lung
NCI-H522 lung = system: NCI-H522 lung
OVCAR-3 ovarian = system: OVCAR-3 ovarian
OVCAR-4 ovarian = system: OVCAR-4 ovarian
OVCAR-5 ovarian = system: OVCAR-5 ovarian
OVCAR-8 ovarian = system: OVCAR-8 ovarian
RPMI-8226 leukemia = system: RPMI-8226 leukemia
RXF 393 renal = system: RXF 393 renal
SF-268 CNS = system: SF-268 CNS
SF-295 CNS = system: SF-295 CNS
SF-539 CNS = system: SF-539 CNS
SK-MEL-2 melanoma = system: SK-MEL-2 melanoma
SK-MEL-28 melanoma = system: SK-MEL-28 melanoma
SK-MEL-5 melanoma = system: SK-MEL-5 melanoma
SK-OV-3 ovarian = system: SK-OV-3 ovarian
SN12C renal = system: SN12C renal
SNB-19 CNS = system: SNB-19 CNS
SNB-75 CNS = system: SNB-75 CNS
SNB-78 CNS = system: SNB-78 CNS
SW-620 colon = system: SW-620 colon
TK-10 renal = system: TK-10 renal
U251 CNS = system: U251 CNS
UACC-257 melanoma = system: UACC-257 melanoma
UACC-62 melanoma = system: UACC-62 melanoma
XF 498 CNS = system: XF 498 CNS
DLD-1 colon = system: DLD-1 colon
HL-60(TB) leukemia = system: HL-60(TB) leukemia
IGROV1 ovarian = system: IGROV1 ovarian
K-562 leukemia = system: K-562 leukemia
UO-31 renal = system: UO-31 renal
HOP-18 NSCLC = system: HOP-18 NSCLC
RXF-631 renal = system: RXF-631 renal
SR leukemia = system: SR leukemia

COc1ccc2nc3ccccc3c(NCCCCCCN(C)CCCl)c2c1
TGI (786-0 renal): 1.53 µM
TGI (A498 renal): 2.53 µM
TGI (A549 NSCLC): 3.34 µM
TGI (ACHN renal): 2.36 µM
TGI (CAKI-1 renal): 3.19 µM
TGI (CCRF-CEM leukemia): 0.348 µM
TGI (COLO 205 colon): 1.52 µM
TGI (DMS 114 small cell lung): 1.69 µM
TGI (DMS 273 small cell lung): 1.26 µM
TGI (EKVX NSCLC): 3.45 µM
TGI (HCC-2998 colon): 1.98 µM
TGI (HCT-116 colon): 1.22 µM
TGI (HCT-15 colon): 2.01 µM
TGI (HOP-62 NSCLC): 3.03 µM
TGI (HOP-92 NSCLC): 1.33 µM
TGI (HT29 colon): 2.38 µM
TGI (KM12 colon): 1.44 µM
TGI (KM20L2 colon): 2.54 µM
TGI (LOX IMVI melanoma): 0.515 µM
TGI (LXFL 529 NSCLC): 1.76 µM
TGI (M14 melanoma): 2.3 µM
TGI (M19-MEL melanoma): 1.65 µM
TGI (MALME-3M melanoma): 2.06 µM
TGI (MOLT-4 leukemia): 0.165 µM
TGI (NCI-H226 lung): 1.55 µM
TGI (NCI-H23 lung): 1.04 µM
TGI (NCI-H460 lung): 1.46 µM
TGI (NCI-H522 lung): 1.58 µM
TGI (OVCAR-3 ovarian): 3.12 µM
TGI (OVCAR-4 ovarian): 3.03 µM
TGI (OVCAR-5 ovarian): 3.25 µM
TGI (OVCAR-8 ovarian): 1.81 µM
TGI (RPMI-8226 leukemia): 1.19 µM
TGI (RXF 393 renal): 1.23 µM
TGI (SF-268 CNS): 2.48 µM
TGI (SF-295 CNS): 2.88 µM
TGI (SF-539 CNS): 2.11 µM
TGI (SK-MEL-2 melanoma): 1.81 µM
TGI (SK-MEL-28 melanoma): 2.26 µM
TGI (SK-MEL-5 melanoma): 2.16 µM
TGI (SK-OV-3 ovarian): 2.04 µM
TGI (SN12C renal): 1.75 µM
TGI (SNB-19 CNS): 2.77 µM
TGI (SNB-75 CNS): 2.73 µM
TGI (SNB-78 CNS): 4.79 µM
TGI (SW-620 colon): 1.52 µM
TGI (TK-10 renal): 4.91 µM
TGI (U251 CNS): 1.75 µM
TGI (UACC-257 melanoma): 3.19 µM
TGI (UACC-62 melanoma): 1.61 µM
TGI (XF 498 CNS): 0.845 µM

CC(=O)O[C@H]1C(=O)[C@@]2(C)C(C(OC(=O)c3ccccc3)[C@]3(O)CC(OC(=O)C(O)C(NC(=O)c4ccc(C)cc4)c4ccccc4)C(C)=C1C3(C)C)[C@]1(OC(C)=O)CO[C@@H]1C[C@@H]2O (some centres undefined)
TGI (786-0 renal): > 25 µM
TGI (A498 renal): 14.1 µM
TGI (A549 NSCLC): > 25 µM
TGI (ACHN renal): > 25 µM
TGI (CAKI-1 renal): 11.1 µM
TGI (CCRF-CEM leukemia): > 25 µM
TGI (COLO 205 colon): 0.00736 µM
TGI (DLD-1 colon): 15.4 µM
TGI (DMS 114 small cell lung): < 0.0025 µM
TGI (DMS 273 small cell lung): 3.25 µM
TGI (EKVX NSCLC): > 25 µM
TGI (HCT-116 colon): 0.411 µM
TGI (HCT-15 colon): 3.29 µM
TGI (HL-60(TB) leukemia): 3.35 µM
TGI (HOP-62 NSCLC): 14.1 µM
TGI (IGROV1 ovarian): 0.101 µM
TGI (K-562 leukemia): 5.77 µM
TGI (KM12 colon): 19.8 µM
TGI (LOX IMVI melanoma): 7.77 µM
TGI (LXFL 529 NSCLC): > 25 µM
TGI (M19-MEL melanoma): 4.23 µM
TGI (MALME-3M melanoma): 11.5 µM
TGI (MOLT-4 leukemia): 7.39 µM
TGI (NCI-H23 lung): > 25 µM
TGI (NCI-H460 lung): > 25 µM
TGI (NCI-H522 lung): < 0.0025 µM
TGI (OVCAR-3 ovarian): < 0.0025 µM
TGI (OVCAR-4 ovarian): > 25 µM
TGI (OVCAR-5 ovarian): 3.98 µM
TGI (OVCAR-8 ovarian): > 25 µM
TGI (RPMI-8226 leukemia): 6.77 µM
TGI (RXF 393 renal): 0.143 µM
TGI (SF-268 CNS): > 25 µM
TGI (SF-295 CNS): 0.107 µM
TGI (SF-539 CNS): 0.0119 µM
TGI (SK-MEL-2 melanoma): 0.0141 µM
TGI (SK-MEL-5 melanoma): 16.8 µM
TGI (SK-OV-3 ovarian): 0.0284 µM
TGI (SN12C renal): > 25 µM
TGI (SNB-19 CNS): 16.7 µM
TGI (SNB-75 CNS): 0.0486 µM
TGI (SNB-78 CNS): > 25 µM
TGI (TK-10 renal): 9.47 µM
TGI (U251 CNS): > 25 µM
TGI (UACC-257 melanoma): > 25 µM
TGI (UACC-62 melanoma): 7.44 µM
TGI (UO-31 renal): 9.23 µM
TGI (XF 498 CNS): 0.0201 µM

Cc1cc(O)cc2c1O[C@@]1(C)CCC3[C@@]4(C)CC[C@H](O)C(C)(C)C4CC[C@@]3(C)[C@H]1C2 (some centres undefined)
TGI (786-0 renal): 4.72 µM
TGI (A498 renal): 36.3 µM
TGI (A549 NSCLC): 19.6 µM
TGI (ACHN renal): 19 µM
TGI (CAKI-1 renal): 20.6 µM
TGI (CCRF-CEM leukemia): 7.08 µM
TGI (COLO 205 colon): 33.4 µM
TGI (DLD-1 colon): 12.6 µM
TGI (DMS 114 small cell lung): 19.9 µM
TGI (DMS 273 small cell lung): 11.6 µM
TGI (EKVX NSCLC): 31.4 µM
TGI (HCT-116 colon): 16.1 µM
TGI (HCT-15 colon): 12.7 µM
TGI (HL-60(TB) leukemia): 13.5 µM
TGI (HOP-18 NSCLC): 27.8 µM
TGI (HOP-92 NSCLC): 9.78 µM
TGI (HT29 colon): 28.2 µM
TGI (IGROV1 ovarian): 30.2 µM
TGI (K-562 leukemia): 6.56 µM
TGI (KM12 colon): 21.4 µM
TGI (LOX IMVI melanoma): 20.6 µM
TGI (LXFL 529 NSCLC): 7.64 µM
TGI (M14 melanoma): 24.3 µM
TGI (M19-MEL melanoma): 25 µM
TGI (MALME-3M melanoma): 24.1 µM
TGI (MOLT-4 leukemia): 4 µM
TGI (NCI-H226 lung): 24.9 µM
TGI (NCI-H23 lung): 29.2 µM
TGI (NCI-H460 lung): 17.5 µM
TGI (NCI-H522 lung): 21.9 µM
TGI (OVCAR-3 ovarian): 19.8 µM
TGI (OVCAR-8 ovarian): 27 µM
TGI (RPMI-8226 leukemia): 5.07 µM
TGI (RXF 393 renal): 13.3 µM
TGI (SF-295 CNS): 6.16 µM
TGI (SF-539 CNS): 6.43 µM
TGI (SK-MEL-28 melanoma): 20.3 µM
TGI (SK-MEL-5 melanoma): 19 µM
TGI (SK-OV-3 ovarian): 12.5 µM
TGI (SN12C renal): 25.4 µM
TGI (SNB-75 CNS): 11.8 µM
TGI (SNB-78 CNS): 22.1 µM
TGI (SW-620 colon): 23.5 µM
TGI (TK-10 renal): 29 µM
TGI (U251 CNS): 11.5 µM
TGI (UACC-257 melanoma): 29.2 µM
TGI (UACC-62 melanoma): 21.9 µM
TGI (UO-31 renal): 22.6 µM

Cc1ccc(C)c(NC(=O)CC/C(=N\NC(=O)C(N)=O)C(C)C(=O)c2ccc(O)cc2)c1 (centres undefined)
TGI (786-0 renal): > 100 µM
TGI (A549 NSCLC): > 100 µM
TGI (ACHN renal): > 100 µM
TGI (CAKI-1 renal): > 100 µM
TGI (CCRF-CEM leukemia): > 100 µM
TGI (COLO 205 colon): > 100 µM
TGI (DLD-1 colon): > 100 µM
TGI (DMS 114 small cell lung): > 100 µM
TGI (EKVX NSCLC): > 100 µM
TGI (HCC-2998 colon): > 100 µM
TGI (HCT-116 colon): > 100 µM
TGI (HCT-15 colon): > 100 µM
TGI (HL-60(TB) leukemia): > 100 µM
TGI (HOP-18 NSCLC): > 100 µM
TGI (HOP-62 NSCLC): > 100 µM
TGI (HOP-92 NSCLC): > 100 µM
TGI (HT29 colon): > 100 µM
TGI (IGROV1 ovarian): > 100 µM
TGI (K-562 leukemia): > 100 µM
TGI (KM12 colon): > 100 µM
TGI (KM20L2 colon): > 100 µM
TGI (LOX IMVI melanoma): > 100 µM
TGI (LXFL 529 NSCLC): > 100 µM
TGI (M14 melanoma): > 100 µM
TGI (M19-MEL melanoma): > 100 µM
TGI (MALME-3M melanoma): > 100 µM
TGI (MOLT-4 leukemia): > 100 µM
TGI (NCI-H226 lung): > 100 µM
TGI (NCI-H23 lung): > 100 µM
TGI (NCI-H460 lung): > 100 µM
TGI (OVCAR-3 ovarian): > 100 µM
TGI (OVCAR-4 ovarian): > 100 µM
TGI (OVCAR-5 ovarian): > 100 µM
TGI (OVCAR-8 ovarian): > 100 µM
TGI (RXF 393 renal): > 100 µM
TGI (RXF-631 renal): > 100 µM
TGI (SF-268 CNS): > 100 µM
TGI (SF-295 CNS): > 100 µM
TGI (SF-539 CNS): > 100 µM
TGI (SK-MEL-2 melanoma): > 100 µM
TGI (SK-MEL-28 melanoma): > 100 µM
TGI (SK-MEL-5 melanoma): > 100 µM
TGI (SK-OV-3 ovarian): > 100 µM
TGI (SN12C renal): > 100 µM
TGI (SNB-19 CNS): > 100 µM
TGI (SNB-78 CNS): > 100 µM
TGI (SR leukemia): > 100 µM
TGI (SW-620 colon): > 100 µM
TGI (U251 CNS): > 100 µM
TGI (UACC-257 melanoma): > 100 µM
TGI (UACC-62 melanoma): > 100 µM
TGI (UO-31 renal): > 100 µM

From PubChem BioAssay (NCI)
